The text below walks through data of patent US12428396B2, “Fused pyridine ring derivative, preparation method therefor, and pharmaceutical use thereof” (priority 2019, dated 2025).

For orientation: half-life means the time needed for the level to fall by half in the phase considered.

The nature of data set [1]: Beagle pharmacokinetic study (ig/sc/iv, plasma LC/MS/MS). Format: in vivo, beagles. As to conditions: for AUC(0-t) / half-life / Cmax: dog, plasma; for AUC(0-t): read-out: Area under curve AUC0-72; for half-life: read-out: Half life T½ (converted); for Cmax: read-out: Plasma concentration Cmax. The method, then: Taking beagles as test animals, and the drug concentrations in dog plasma at various times after intragastric administration (ig)/subcutaneous injection (sc)/intravenous injection (iv) administration of the compound of Example 1-1 and Positive Control Example 1 were measured by using LC/MS/MS method. The pharmacokinetic performance in beagles of the compounds of the present disclosure was studied and the pharmacokinetic profile thereof was evaluated.
18 non-naïve beagles (999M-004, medicilon) with 7-12 kg, every 3 of which were in one group.
The intragastric administration group: a certain amount of the compounds was weighed, ethanol with a volume of 5% of the final volume, 20% PG, 45% PEG300 and 30% deionized water were added (the pH was adjusted to be about 2 with 0.01 N HCl), and the reaction mixture was subjected to ultrasonic stirring for uniform mixing to give an administration solution at a concentration of 0.8 mg/mL.
The subcutaneous injection administration group: a certain amount of the compounds was weighed, 2% aqueous poloxamer 188 solution with a proper volume was added, and the reaction mixture was subjected to ultrasonic stirring for uniform mixing to give a suspension administration solution at a concentration of 200 mg/mL.
The intravenous administration group: a certain amount of the compounds was weighed, 5% volume of DMSO, 30% PG, 30% PEG400 and 35% volume of normal saline were added, and the reaction mixture was subjected to vortex ultrasonic stirring for uniform mixing to give an administration solution at a concentration of 0.5 mg/mL.
Beagles were intragastrically administered with the compounds after fasting overnight, at a dose of 4.0 mg/kg and a volume of 5.0 mL/kg.
Beagles were subcutaneously injected with the compounds after fasting overnight, at a dose of 6.0 mg/kg and a volume of 0.03 mL/kg.
Beagles were intravenously injected with the compounds after fasting overnight, at a dose of 1.0 mg/kg and a volume of 2 mL/kg.
Beagles were intragastrically administered with the compound of Example 1-1/Positive Control Example 1, and 1 mL of blood was collected from the orbit before administration and at 0.25 h, 0.5 h, 1.0 h, 2.0 h, 4.0 h, 6.0 h, 8.0 h, 12.0 h, 24 h, 32 h, 48 h, 56 h and 72 h after administration, respectively, and placed in EDTA-K2 anticoagulant blood collection tubes, plasma was centrifuged (centrifugal force: 2200 g, centrifugation time: 10 min, 2-8° C.), and stored at −80° C., and food intake was resumed 3 h after administration.
The compound of Example 1-1/Positive Control Example 1 was subcutaneously injected to beagles, and 1 mL of blood was collected before administration and at 1.0 h, 3.0 h, 8.0 h, 24 h, 48 h, 72 h, 96 h, 168 h, 336 h, 432 h and 504 h after administration, respectively, and placed in EDTA-K2 anticoagulant blood collection tubes, plasma was centrifuged (centrifugal force: 2200 g, centrifugation time: 10 min, 2-8° C.), and stored at −80° C., and food intake was resumed 3 h after administration.
The content of the compound to be tested in the plasma of beagles was determined after the intragastric administration of the compounds at different concentrations: 20 μL of the plasma in beagles at each time after administration was taken, 200 μL of methanol containing internal standard (100 ng/mL) was added, the reaction mixture was subjected to vortex mixing for 1 min, and centrifuged for 7 min (centrifugal force: 18000 g), and 1 μL of the supernatant was taken from the plasma sample for LC/MS/MS analysis. […]

The nature of data set [2]: Monkey pharmacokinetic study (iv, plasma LC/MS/MS). Format: in vivo, cynomolgus monkeys. As to conditions: cynomolgus monkey, intravenous injection, 1 mg/kg. As for the experimental part:
Taking cynomolgus monkeys as test animals and the drug concentrations in monkey plasma at various times after intravenous injection (iv) of the compounds of Example 1-1 and Positive Control Example 1 were measured by using LC/MS/MS method. The pharmacokinetic performance in cynomolgus monkeys of the compounds of the present disclosure was studied and the pharmacokinetic profile thereof was evaluated.
6 non-naïve cynomolgus monkeys (999M-004, medicilon) with 2-5 kg, every 3 of which were in one group.
A certain amount of the compounds was weighed, 5% volume of DMSO, 30% PG, 30% PEG400 and 35% volume of normal saline were added, and the reaction mixture was subjected to vortex ultrasonic stirring for uniform mixing to give a clean administration solution at a concentration of 0.5 mg/mL.
Monkeys were intravenously injected with the compounds after fasting overnight, at a dose of 1.0 mg/kg and a volume of 2 mL/kg.
The compound of Example 1-1/Positive Control Example 1 was intravenously injected to monkeys, and 1 mL of blood was collected through femoral vein before administration and at 5 min, 0.25 h, 0.5 h, 1.0 h, 2.0 h, 4.0 h, 8.0 h, 12.0 h, 24 h, 32 h, 48 h, 56 h and 72 h after administration, respectively, and placed in EDTA-K2 anticoagulant blood collection tubes, plasma was centrifuged (centrifugal force: 2200 g, centrifugal time: 10 min, 2-8° C.), and stored at −80° C., and food intake was resumed 3 h after administration.

The mark [3] stands for this setting: po, intragastric administration, 4 mg/kg.
[4] abbreviates: sc, subcutaneous injection, 6 mg/kg.

Where two headings read alike, the source gives them in different places.

Take `CC(C)(C#Cc1nc([C@H](Cc2cc(F)cc(F)c2)NC(=O)Cn2nc(C(F)(F)F)c3c2C(F)(F)[C@@H]2C[C@H]32)c(-c2ccc(Cl)c3c(NS(C)(=O)=O)nn(CC(F)(F)F)c23)c2c1CCC2)S(C)(=O)=O` (atropisomer, axis not shown; (aR)) [Example 1-1, N—((S)-1-((R)-4-(4-chloro-3-(methanesulfonamide)-1-(2,2,2-trifluoroethyl)-1H-indazol-7-yl)-1-(3-methyl-3-(methylsulfonyl)but-1-yn-1-yl)-6,7-dihydro-5H-cyclopenta[c]pyridin-3-yl)-2-(3,5-difluorophenyl)ethyl)-2-((3bS,4aR)-5,5-difluoro-3-(trifluoromethyl)-3b,4,4a,5-tetrahydro-1H-cyclopropa[3,4]cyclopenta[1,2-c]pyrazol-1-yl)acetamide]: the AUC(0-t) was 16500 ng·h/mL in data set [1] (intravenous injection, 1 mg/kg); 8230 ng·h/mL in data set [1] (setting [3]); 34800 ng·h/mL in data set [1] (setting [4]); 8520 ng·h/mL in data set [2] (plasma, read-out: Area under curve AUC0-72). The half-life in data set [1] (intravenous injection, 1 mg/kg) was 41.8 h; in data set [1] (setting [3]), 44.3 h. The Cmax in data set [1] (intravenous injection, 1 mg/kg) is 1320 ng/mL; in data set [1] (setting [3]), 251 ng/mL; in data set [1] (setting [4]) it was 122 ng/mL. In addition, the “Clearance CLz/F” value in data set [1] (intravenous injection, 1 mg/kg) came out at 0.7 mL/min/kg; in data set [2] it was 2.0 mL/min/kg.
